Assay results: PubChem BioAssay AID2060886 (Molecular Pharmacology Branch, DTP, NCI, 2025)

Test system: 653999-131-R-J2-PDC complex spheroids, growth inhibition
Experiment: Anticancer human tumor 653999-131-R-J2-PDC patient-derived lung adenocarcinoma cell line growth inhibition [RAS]
Conditions: for viability, T/C: stronger effect = lower value
Summary of the method: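 Tumour cells grown as complex spheroids with HUVEC endothelial cells and mesenchymal stem cells, treated with RAS pathway inhibitor combinations. Each agent spans half-log steps from near clinical Cmax, or 10 microM where Cmax is unknown.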

[1] = curve of first compound, second compound 0.0316 µM
[2] = curve of first compound, second compound 0.1 µM
[3] = curve of first compound, second compound 0.316 µM
[4] = curve of first compound, second compound 1 µM
[5] = curve of first compound, second compound 3.16 µM
[6] = curve of first compound, second compound 10 µM
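Further: spheroids exposed to the agents for seven days before the readout.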

SMILES: CC(Nc1ccc2c(c1)OCCn1cc(N3C(=O)OCC3C(F)F)nc1-2)C(N)=O (stereo unspecified)
- viability, T/C (compound 0.0316 µM): 79.8% [middle of 4 runs]
- viability, T/C (compound 0.1 µM): 77.8% [middle of 4 runs]
- viability, T/C (compound 0.316 µM): 57.4% [middle of 4 runs]
- viability, T/C (compound 1 µM): 45.6% [middle of 4 runs]
- viability, T/C (compound 3.16 µM): 36.4% [middle of 4 runs]
- viability, T/C (compound 10 µM): 25.5% [middle of 4 runs]
- IC50 (curve of compound): 727 nM [middle of 4 runs]

SMILES: CC1(O)CCCC1n1c(=O)c(C(F)F)cc2cnc(NC3CCN(S(C)(=O)=O)CC3)nc21 (stereo unspecified) + C#Cc1c(F)ccc2cc(O)cc(-c3ncc4c(N5CC6CCC(C5)N6)nc(OCC56CCCN5CC(F)C6)nc4c3F)c12
- IC50 [1]: 4780 nM
- IC50 [2]: 3960 nM
- IC50 [3]: < 31.6 nM
- IC50 [4]: < 31.6 nM
- IC50 [5]: < 31.6 nM
- IC50 [6]: < 31.6 nM
- viability, T/C (second compound 0.0316 µM, first compound 0.0316 µM): 71.3%
- viability, T/C (second compound 0.0316 µM, first compound 0.1 µM): 54.8%
- viability, T/C (second compound 0.0316 µM, first compound 0.316 µM): 62.4%
- viability, T/C (second compound 0.0316 µM, first compound 1 µM): 57.2%
- viability, T/C (second compound 0.0316 µM, first compound 3.16 µM): 63.1%
- viability, T/C (second compound 0.0316 µM, first compound 10 µM): 29.6%
- viability, T/C (second compound 0.1 µM, first compound 0.0316 µM): 69.4%
- viability, T/C (second compound 0.1 µM, first compound 0.1 µM): 49.9%
- viability, T/C (second compound 0.1 µM, first compound 0.316 µM): 51.2%
- viability, T/C (second compound 0.1 µM, first compound 1 µM): 52.1%
- viability, T/C (second compound 0.1 µM, first compound 3.16 µM): 58.4%
- viability, T/C (second compound 0.1 µM, first compound 10 µM): 24.7%
- viability, T/C (second compound 0.316 µM, first compound 0.0316 µM): 49.4%
- viability, T/C (second compound 0.316 µM, first compound 0.1 µM): 42.7%
- viability, T/C (second compound 0.316 µM, first compound 0.316 µM): 42.6%
- viability, T/C (second compound 0.316 µM, first compound 1 µM): 45.5%
- viability, T/C (second compound 0.316 µM, first compound 3.16 µM): 49.2%
- viability, T/C (second compound 0.316 µM, first compound 10 µM): 27.7%
- viability, T/C (second compound 1 µM, first compound 0.0316 µM): 40.5%
- viability, T/C (second compound 1 µM, first compound 0.1 µM): 31.4%
- viability, T/C (second compound 1 µM, first compound 0.316 µM): 32.7%
- viability, T/C (second compound 1 µM, first compound 1 µM): 34.3%
- viability, T/C (second compound 1 µM, first compound 3.16 µM): 34.4%
- viability, T/C (second compound 1 µM, first compound 10 µM): 24.5%
- viability, T/C (second compound 3.16 µM, first compound 0.0316 µM): 29.6%
- viability, T/C (second compound 3.16 µM, first compound 0.1 µM): 25.5%
- viability, T/C (second compound 3.16 µM, first compound 0.316 µM): 21.6%
- viability, T/C (second compound 3.16 µM, first compound 1 µM): 23%
- viability, T/C (second compound 3.16 µM, first compound 3.16 µM): 31.4%
- viability, T/C (second compound 3.16 µM, first compound 10 µM): 20.7%
- viability, T/C (second compound 10 µM, first compound 0.0316 µM): 23.2%
- viability, T/C (second compound 10 µM, first compound 0.1 µM): 17.1%
- viability, T/C (second compound 10 µM, first compound 0.316 µM): 20.6%
- viability, T/C (second compound 10 µM, first compound 1 µM): 19.7%
- viability, T/C (second compound 10 µM, first compound 3.16 µM): 25.6%
- viability, T/C (second compound 10 µM, first compound 10 µM): 22.7%

SMILES: CC1(C)CCC(Nc2ncc(C(F)(F)F)c(-c3c[nH]c4c(P(C)(C)=O)c(C#N)ccc34)n2)CN1 (stereo unspecified) + C#Cc1c(F)ccc2cc(O)cc(-c3ncc4c(N5CC6CCC(C5)N6)nc(OCC56CCCN5CC(F)C6)nc4c3F)c12
- IC50 [1]: > 300 nM
- IC50 [2]: > 300 nM
- IC50 [3]: 2.7 nM
- IC50 [4]: < 0.949 nM
- IC50 [5]: < 0.949 nM
- IC50 [6]: < 0.949 nM
- viability, T/C (second compound 0.0316 µM, first compound 0.000949 µM): 84.7%
- viability, T/C (second compound 0.0316 µM, first compound 0.003 µM): 66.3%
- viability, T/C (second compound 0.0316 µM, first compound 0.00949 µM): 62.9%
- viability, T/C (second compound 0.0316 µM, first compound 0.03 µM): 61.5%
- viability, T/C (second compound 0.0316 µM, first compound 0.0949 µM): 55.3%
- viability, T/C (second compound 0.0316 µM, first compound 0.3 µM): 55.6%
- viability, T/C (second compound 0.1 µM, first compound 0.000949 µM): 69.9%
- viability, T/C (second compound 0.1 µM, first compound 0.003 µM): 64.2%
- viability, T/C (second compound 0.1 µM, first compound 0.00949 µM): 59%
- viability, T/C (second compound 0.1 µM, first compound 0.03 µM): 56.4%
- viability, T/C (second compound 0.1 µM, first compound 0.0949 µM): 72.7%
- viability, T/C (second compound 0.1 µM, first compound 0.3 µM): 55.6%
- viability, T/C (second compound 0.316 µM, first compound 0.000949 µM): 59.6%
- viability, T/C (second compound 0.316 µM, first compound 0.003 µM): 48.3%
- viability, T/C (second compound 0.316 µM, first compound 0.00949 µM): 46.9%
- viability, T/C (second compound 0.316 µM, first compound 0.03 µM): 47.3%
- viability, T/C (second compound 0.316 µM, first compound 0.0949 µM): 44.4%
- viability, T/C (second compound 0.316 µM, first compound 0.3 µM): 43.5%
- viability, T/C (second compound 1 µM, first compound 0.000949 µM): 37.5%
- viability, T/C (second compound 1 µM, first compound 0.003 µM): 36.3%
- viability, T/C (second compound 1 µM, first compound 0.00949 µM): 37.1%
- viability, T/C (second compound 1 µM, first compound 0.03 µM): 38.1%
- viability, T/C (second compound 1 µM, first compound 0.0949 µM): 37.7%
- viability, T/C (second compound 1 µM, first compound 0.3 µM): 39.3%
- viability, T/C (second compound 3.16 µM, first compound 0.000949 µM): 33.8%
- viability, T/C (second compound 3.16 µM, first compound 0.003 µM): 26.8%
- viability, T/C (second compound 3.16 µM, first compound 0.00949 µM): 21.6%
- viability, T/C (second compound 3.16 µM, first compound 0.03 µM): 22.1%
- viability, T/C (second compound 3.16 µM, first compound 0.0949 µM): 27.1%
- viability, T/C (second compound 3.16 µM, first compound 0.3 µM): 27.4%
- viability, T/C (second compound 10 µM, first compound 0.000949 µM): 26.4%
- viability, T/C (second compound 10 µM, first compound 0.003 µM): 20.2%
- viability, T/C (second compound 10 µM, first compound 0.00949 µM): 16.7%
- viability, T/C (second compound 10 µM, first compound 0.03 µM): 14.1%
- viability, T/C (second compound 10 µM, first compound 0.0949 µM): 16.9%
- viability, T/C (second compound 10 µM, first compound 0.3 µM): 17.4%
